Results from patent US20210322508A1, “PEPTIDES AND COMPOSITIONS FOR TARGETED TREATMENT AND IMAGING” (SIGNABLOK, INC., priority 2018, published 2021).
Residues, ends and D or L forms follow the SMILES beside them.

How the values were obtained:
healthy C57BL/6 mice = assay: Mouse tolerability studies; assay type: in vivo; conditions: free form, i.p., healthy mice
Method: Naïve, female C57BL/6 mice at 8 to 10 weeks of age (18 to 21 g) from the Jackson Laboratory were used. […] Clinical observations and body weights were made twice daily.
Naïve, female C57BL/6 mice at 8 to 10 weeks of age (18 to 21 g) from the Jackson Laboratory were used. Animals were randomly grouped (5 mice per group) and i.p. injected with 400 mg/kg G-HV21, G-KV21 or G-TE21. Clinical observations and body weights were made twice daily.

TREM-1 [1] = target: T1, TREM-1 (Mus musculus, UniProt Q9JKE2); assay: colocalization of labeled peptide with TREM-1 in the cell membrane (images); assay type: cell-based; conditions: GE31 delivered to macrophages by SLP, G-KV21 pre-incubated with HDL, J774 cells
T1 construct: BALB/c murine macrophage J774A.1 cells were grown at 37° C. in six-well tissue culture plates containing glass coverslips; endogenous in cells; host or cells: BALB/c murine macrophage cell line J774A.1 (ATCC)

TREM-1 [2] = target: T1, TREM-1; assay: Immunofluorescence colocalization with TREM-1 in the cell membrane; assay type: cell-based; conditions: J774A.1; 6 h; Dylight 488-labeled, pre-incubated with HDL
Method: BALB/c murine macrophage J774A.1 cells were obtained from ATCC (Manassas, Va.) and cultured according to manufacturer's instructions at 37° C. in 6-well tissue culture plates containing glass coverslips until reaching about 50% confluency. Then, cells were incubated for 6 h at 37° C. either with rho B-labeled GF9-SLP that contained Dylight labeled GF9 or TREM-1/TRIOPEP-sSLP that contained Dylight 488-labeled GE31. In colocalization experiments, TREM-1 staining was performed using an Alexa 647-labeled rat anti-mouse TREM-1 antibody (Bio-Rad, Hercules, Calif.) as described in Shen and Sigalov. J Cell Mol Med 2017, 21:2524-2534. Coverslips were mounted using Prolong Gold anti-fade DAPI (4′,6-diamidino-2-phenylindole) mounting medium and photographed using an Olympus BX60 fluorescence microscope. Confocal imaging was performed using a Leica TCS SP5 II laser scanning confocal microscope as described in Shen and Sigalov. J Cell Mol Med 2017, 21:2524-2534.
BALB/c murine macrophage J774A.1 cells were grown at 37° C. in six-well tissue culture plates containing glass coverslips. […] ProLong Gold Antifade DAPI (4′,6′-diamidino-2-phenylindole) mounting medium was used to mount coverslips, and the slides were photographed using an Olympus BX60 fluorescence microscope. […]

T1 sequence (O54885 22-114 partner): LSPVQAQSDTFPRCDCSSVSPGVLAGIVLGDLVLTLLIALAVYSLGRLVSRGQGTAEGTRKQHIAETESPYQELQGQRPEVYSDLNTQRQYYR
T1 sequence (Q9JKE2 21-230): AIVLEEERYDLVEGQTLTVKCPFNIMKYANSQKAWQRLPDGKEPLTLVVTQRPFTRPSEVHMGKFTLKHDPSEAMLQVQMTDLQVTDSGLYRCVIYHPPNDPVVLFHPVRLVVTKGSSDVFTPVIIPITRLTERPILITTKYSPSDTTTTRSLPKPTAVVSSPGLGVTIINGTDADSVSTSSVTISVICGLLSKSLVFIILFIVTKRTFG

Compound | dose at which non-toxic and well tolerated (healthy C57BL/6 mice) | colocalization with TREM-1 in the cell membrane (TREM-1 [1]) | self-insertion into the cell membrane and colocalization with TREM-1 (TREM-1 [2])
CC(C)C[C@H](NC(=O)[C@H](Cc1ccccc1)NC(=O)CN)C(=O)N[C@@H](CO)C(=O)N[C@@H](CCCCN)C(=O)N[C@@H](CO)C(=O)N[C@@H](CC(C)C)C(=O)N[C@H](C(=O)N[C@@H](Cc1ccccc1)C(=O)O)C(C)C [GF9] (H-GFLSKSLVF-OH) | at least 300 mg/kg | – | –
CC(C)C[C@H](NC(=O)[C@H](Cc1ccccc1)NC(=O)CN)C(=O)N[C@@H](CO)C(=O)N[C@@H](CCCCN)C(=O)N[C@@H](CO)C(=O)N[C@@H](CC(C)C)C(=O)N[C@H](C(=O)N[C@@H](Cc1ccccc1)C(=O)N[C@@H](Cc1c[nH]c2ccccc12)C(=O)N[C@@H](CCC(N)=O)C(=O)N[C@@H](CCC(=O)O)C(=O)N[C@@H](CCC(=O)O)C(=O)N[C@@H](CC[S+](C)[O-])C(=O)N[C@@H](CCC(=O)O)C(=O)N[C@@H](CC(C)C)C(=O)N[C@@H](Cc1ccc(O)cc1)C(=O)N[C@@H](CCCNC(=N)N)C(=O)N[C@@H](CCC(N)=O)C(=O)N[C@@H](CCCCN)C(=O)N[C@H](C(=O)O)C(C)C)C(C)C (stereo partly drawn) [G-KV21] (HELM PEPTIDE1{G.F.L.S.K.S.L.V.F.W.Q.E.E.[CS(=O)CC[C@H](N[*:1])C(=O)[*:2]].E.L.Y.R.Q.K.V}$$$$V2.0) | – | colocalization | self-inserts into the cell membrane and colocalizes with TREM-1
